Results on 1 molecule are retold here after paper PMC11784013, “Potassium molybdate blocks APN-dependent coronavirus entry by degrading receptor via PIK3C3-mediated autophagy” (Journal of Virology, 2024).

One data set concerns ST cells. Kind of data set: Cell Counting Kit 8 cytotoxicity assay in ST cells. To be noted: PM at concentrations less than 30 mM, 24 h. In kind it is cell-based, swine. The protocol:
Fig 1 PM inhibits TGEV and PRCV infection in ST cells. (A) A cytotoxicity assay of PM in ST cells. ST cells cultured in a 96-well plate were incubated with different concentrations of PM for 24 h, which was tested by Cell Counting Kit 8. (B) Time course for PM inhibiting TGEV or PRCV or PEDV infection assay. (C–F) The ST cells, pretreated with PM at the indicated concentrations for 1 h were infected with TGEV Miller (0.1 MOI) or PRCV (0.1 MOI) for 1 h and were again treated with PM at 37°C for 17 h. The cell samples were collected and examined by real-time quantitative PCR (RT-qPCR), TCID50, western blot (C and D), and immunofluorescence assay (IFA) (E and F), scale bar: 50 µm. (G) Vero-E6 cells were treated with indicated PM and infected with PEDV LJX 01/2014 according to the time course of Fig. 1B, which was detected by TCID50 and western blot. Results are presented as mean ± SD of data from three independent experiments. ns, no significant; **, P ≤ 0.01; ***, P ≤ 0.001.
ST cells or intestinal organoids cultured in a 96-well plate were incubated with different concentrations of PM (0, 0.1, 0.25, 0.5, 1, 2.5, 5, 10, 20, and 30 mM) for 24 h. […] The absorbance of each well was then measured at 450 nm using a microplate reader to determine cell viability.

The subject of data set [1] is PIK3C3-BECN1-ATG14 complex. Kind of data set: Co-IP and confocal analysis of PtdIns3K complex assembly in ST cells. To be noted: 36 h. In kind it is cell-based, porcine. The protocol:
Fig 8 PM promotes PIK3C3-BECN1-ATG14 complex assembly by enhancing PIK3C3 Ser249 phosphorylation. (A) ST cells were transfected with pCMV-Myc-PIK3C3 and pCDNA3.1-Flag-BECN1 for 12 h and then treated with PM (10 mM) for 36 h. The Co-IP was carried out by Flag or Myc Ab, followed by western blot analysis. (B) ST cells were transfected with pCDNA3.1-Flag-BECN 1 and pCDNA3.4-His-ATG14 for 12 h and treated with PM (10 mM) for 36 h. The Co-IP was performed with Flag or […] Ab, followed by western blot detection. (C–E) ST cells were transfected with pCMV-Myc-PIK3C3, pCDNA3.1-Flag-BECN1, and pCDNA3.4-His-ATG14 for 12 h, and PM (10 mM) was added to the cells for 36 h. Then Co-IP was performed with a Myc, Flag, and His Ab individually, and all IPs, input, and phosphorylation of PIK3C3 (Ser249), BECN1 (Ser14), and ATG14 (Ser29) were detected by western blot. (F) ST cells were transfected with pCMV-Myc-PIK3C3, pCDNA3.1-Flag-BECN1, and pCDNA3.4-His-ATG14 for 12 h, and PM (10 mM) was added to the cells for 36 h, which detected by IFA, scale bar: 20 µm. (G) Quantification of PIK3C3-BECN1-ATG14 complex (merged signal) from F using Image J software. (H) ST cells were transfected with pCMV-Myc-PIK3C3 or pCMV-Myc-PIK3C3 mutant, pCDNA3.1-Flag-BECN1 and pCDNA3.4-His-ATG14 for 12 h and then treated with PM (10 mM) for 36 h. Then Co-IP was performed with a Myc, Flag, and His Ab individually, and all IPs, input, and phosphorylation of PIK3C3 (Ser249), BECN1 (Ser14), and ATG14 (Ser29) were detected by western blot. Results are presented as mean ± SD of data from three independent experiments. ***, P ≤ 0.001.
Cotransfected cells were washed with cold PBS twice and lysed with NP40 lysis buffer (Beyotime, China, P0013F) supplemented with 1 mM PMSF (Beyotime, China, ST506) and phosphatase inhibitors (Beyotime, China, P1096). […] Immunoprecipitated proteins were detected by western blotting. […]

Consider `[K+].[K+].[O]=[Mo](=[O])([O-])[O-]` [PM, potassium molybdate], for which, in the data set on ST cells, the “cytotoxicity (Cell Counting Kit 8)” value was “did not exhibit significant cytotoxicity”. Moreover, in data set [1] (ST cells co-transfected with Myc-PIK3C3, Flag-BECN1, His-ATG14, PM 10 mM), the “PIK3C3 Ser249 phosphorylation” value is reported as “upregulation of PIK3C3 Ser249 phosphorylation”. In data set [1] (ST cells, PM 10 mM), the “colocalization of Myc-PIK3C3, Flag-BECN1 and His-ATG14 (confocal microscopy)” value is “enhanced the colocalization”; the “interaction between Myc-PIK3C3 and Flag-BECN1 (Co-IP)” value was “increased after PM treatment”.
